Assay results taken from the supplement of paper PMC11061612.

What was measured:
Assay in all cases: combination Emax (second highest fraction inhibited in the dose matrix, 72 h); higher = more inhibition; extreme values may be limits of the assay
[1] = test system: CAL-54 (Kidney Carcinoma)
In short: (§1)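 Cell lines in DMEM/F12 or RPMI with 10% FBS were plated in 1536-well plates, held 24 hours at 37°C, 5% CO2, then given two-drug dose matrices for 72 hours (DMSO typically 0.2%). Viability was read by CellTiter-Glo 2.0 luminescence and scaled as inhibition from 0 (vehicle wells) to 1 (blank wells). Combination Emax is the second-highest inhibition in the matrix; Bliss excess is observed combination effect minus expected EA + EB − EA·EB, EA and EB being single-agent effects.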

[2] = test system: CAPAN-1 (Pancreatic Carcinoma)
In short: as §1

[3] = test system: CTB-1 (B-Cell Non-Hodgkin's Lymphoma)
In short: as §1

[4] = test system: EN (Endometrial Carcinoma)
In short: as §1

[5] = test system: HDLM-2 (Hodgkin's Lymphoma)
In short: as §1

[6] = test system: HO-1-u-1 (Oral Cavity Carcinoma)
In short: as §1

[7] = test system: K5 (Thyroid Gland Carcinoma)
In short: as §1

[8] = test system: KARPAS-231 (B-Cell Non-Hodgkin's Lymphoma)
In short: as §1

[9] = test system: KYSE-410 (Esophageal Squamous Cell Carcinoma)
In short: as §1

[10] = test system: LB771-HNC (Head and Neck Carcinoma)
In short: as §1

NB14 (Neuroblastoma) = test system: NB14 (Neuroblastoma)
In short: as §1

NCI-H2461 (Mesothelioma) = test system: NCI-H2461 (Mesothelioma)
In short: as §1

NCI-H2795 (Mesothelioma) = test system: NCI-H2795 (Mesothelioma)
In short: as §1

[11] = test system: RPMI-6666 (Non-Cancerous)
In short: as §1

SH-4 (Melanoma) = test system: SH-4 (Melanoma)
In short: as §1

[12] = test system: SU-DHL-6 (B-Cell Non-Hodgkin's Lymphoma)
In short: as §1

[13] = test system: SUP-T1 (T-Lymphoblastic Leukemia)
In short: as §1

[14] = test system: SW1271 (Small Cell Lung Carcinoma)
In short: as §1

[15] = test system: UMC-11 (Other Solid Carcinomas)
In short: as §1

[16] = test system: MDA-MB-468 (Breast Carcinoma)
In short: as §1

| SMILES | combination Emax [1] | combination Emax [2] | combination Emax [3] | combination Emax [4] | combination Emax [5] | combination Emax [6] | combination Emax [7] | combination Emax [8] | combination Emax [9] | combination Emax [10] | combination Emax (NB14 (Neuroblastoma)) | combination Emax (NCI-H2461 (Mesothelioma)) | combination Emax (NCI-H2795 (Mesothelioma)) | combination Emax [11] | combination Emax (SH-4 (Melanoma)) | combination Emax [12] | combination Emax [13] | combination Emax [14] | combination Emax [15] | combination Emax [16] |
| --- | --- | --- | --- | --- | --- | --- | --- | --- | --- | --- | --- | --- | --- | --- | --- | --- | --- | --- | --- | --- |
| C[C@@H]1COCCN1c1cc(C2([S@](C)(=N)=O)CC2)nc(-c2ccnc3[nH]ccc23)n1 [AZD6738] + O=C(c1cc(Cc2n[nH]c(=O)c3ccccc23)ccc1F)N1CCN(C(=O)C2CC2)CC1 [Olaparib] (first compound max 10 µM, 7x7, partner max 10 µM) | 0.658 | 0.442 | 0.777 | 0.535 | 0.437 | 0.793 | 0.627 | 0.723 | 0.239 | 0.483 | 0.94 | 0.703 | 0.745 | 0.816 | 0.419 | 0.621 | 0.767 | 0.666 | 0.561 |  |
| C=CCn1c(=O)c2cnc(Nc3ccc(N4CCN(C)CC4)cc3)nc2n1-c1cccc(C(C)(C)O)n1 [AZD1775] + O=C(c1cc(Cc2n[nH]c(=O)c3ccccc23)ccc1F)N1CCN(C(=O)C2CC2)CC1 [Olaparib] (first compound max 1 µM, partner max 10 µM) | 0.679 | 0.516 | 0.879 | 0.531 | 0.74 | 0.644 | 0.528 | 0.972 | 0.251 | 0.533 | 0.986 | 0.649 | 0.57 |  | 0.492 | 0.85 | 0.879 | 0.619 | 0.438 | 0.484 |
| C=CCn1c(=O)c2cnc(Nc3ccc(N4CCN(C)CC4)cc3)nc2n1-c1cccc(C(C)(C)O)n1 [AZD1775] + C[C@@H]1COCCN1C2=NC(=NC(=C2)C3(CC3)[S@](=N)(=O)C)C4=C5C=CNC5=NC=C4 [AZD6738] (first compound max 1 µM, partner max 10 µM) | 0.759 | 0.49 | 0.944 | 0.764 | 0.772 | 0.973 | 0.749 | 0.98 | 0.499 | 0.536 | 1 | 0.764 | 0.803 |  | 0.56 | 0.922 | 0.882 | 0.637 | 0.785 | 0.634 |
| Cc1nc(Nc2ncc(C(=O)Nc3c(C)cccc3Cl)s2)cc(N2CCN(CCO)CC2)n1 [Dasatinib] + CC(=O)Nc1cccc(-n2c(=O)n(C3CC3)c(=O)c3c(Nc4ccc(I)cc4F)n(C)c(=O)c(C)c32)c1 [Trametinib] (first compound max 2 µM, 7x7, partner max 1 µM) | 0.958 | 0.615 |  | 0.289 | 0.12 | 0.713 | 0.929 | 0.476 | 0.546 | 0.202 | 0.465 | 0.431 | 0.972 | 0.686 | 0.935 | 1 | 0.577 | 0.928 | 0.136 | 0.621 |
| NC1(C(=O)N[C@@H](CCO)c2ccc(Cl)cc2)CCN(c2ncnc3[nH]ccc23)CC1 [Capivasertib] + CC(=O)c1c(C)c2cnc(Nc3ccc(N4CCNCC4)cn3)nc2n(C2CCCC2)c1=O [Palbociclib] (first compound max 10 µM, 7x7, partner max 10 µM) | 0.658 | 0.277 |  | 0.546 | 0.29 | 0.806 | 0.653 | 0.129 | 0.549 | 0.403 | 0.598 | 0.467 | 0.489 | 0.675 | 0.427 | 1 | 0.677 | 0.349 | 0.553 | 0.508 |
| CS(=O)(=O)CCNCc1ccc(-c2ccc3ncnc(Nc4ccc(OCc5cccc(F)c5)c(Cl)c4)c3c2)o1 [Lapatinib] + C[C@@H](Oc1cc(-c2cnn(C3CCNCC3)c2)cnc1N)c1c(Cl)ccc(F)c1Cl [Crizotinib] (first compound max 10 µM, 7x7, partner max 10 µM) | 0.916 | 0.527 |  | 0.559 | 0.552 | 0.961 | 0.984 | 0.57 | 0.934 | 0.854 | 0.979 | 0.91 | 0.949 | 0.843 | 0.883 | 0.983 | 0.875 | 0.529 | 0.703 | 0.959 |
